Results taken from US10005739B2, “Quinazolinone and isoquinolinone derivative” (CHUGAI SEIYAKU KABUSHIKI KAISHA, priority 2013, dated 2018).

Target: T1, DDR1 (Homo sapiens (Human), UniProt Q08345)
Assay: Measurement of DDR1 binding activity (LanthaScreen Eu Kinase Binding Assay)
Settings: not given
Experimental: 2. Measurement of DDR1 Binding Activity
DDR1 binding activity was measured using the LanthaScreen (Registered trademark) Eu Kinase Binding Assay (manufactured by Life Technologies Corporation). […] After one-hour reaction at room temperature, the fluorescence resonance energy transfer was measured.

T1 sequence (Q08345 19-913): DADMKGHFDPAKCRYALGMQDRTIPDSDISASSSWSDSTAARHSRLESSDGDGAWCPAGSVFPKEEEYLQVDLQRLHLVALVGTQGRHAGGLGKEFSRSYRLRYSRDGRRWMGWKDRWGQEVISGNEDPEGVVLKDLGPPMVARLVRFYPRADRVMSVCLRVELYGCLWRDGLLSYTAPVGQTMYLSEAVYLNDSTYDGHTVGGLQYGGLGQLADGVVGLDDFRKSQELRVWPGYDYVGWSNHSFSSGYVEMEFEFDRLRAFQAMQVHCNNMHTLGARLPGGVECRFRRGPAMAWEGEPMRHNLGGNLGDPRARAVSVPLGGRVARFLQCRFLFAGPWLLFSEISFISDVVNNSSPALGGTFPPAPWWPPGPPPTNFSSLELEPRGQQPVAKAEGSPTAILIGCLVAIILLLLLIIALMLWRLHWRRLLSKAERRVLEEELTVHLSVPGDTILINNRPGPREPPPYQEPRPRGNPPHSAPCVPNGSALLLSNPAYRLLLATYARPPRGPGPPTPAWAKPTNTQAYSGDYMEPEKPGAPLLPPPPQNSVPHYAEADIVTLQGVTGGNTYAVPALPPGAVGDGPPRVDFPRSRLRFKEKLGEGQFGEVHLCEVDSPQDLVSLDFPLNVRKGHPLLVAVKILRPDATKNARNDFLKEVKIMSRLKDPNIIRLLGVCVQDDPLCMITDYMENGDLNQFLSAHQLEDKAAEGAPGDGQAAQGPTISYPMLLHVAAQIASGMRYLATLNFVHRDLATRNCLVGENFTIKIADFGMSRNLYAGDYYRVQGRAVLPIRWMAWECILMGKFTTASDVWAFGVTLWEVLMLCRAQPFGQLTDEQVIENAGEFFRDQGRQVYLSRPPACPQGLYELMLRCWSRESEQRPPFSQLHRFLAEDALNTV

SMILES	IC50
CCS(=O)(=O)c1ccc(Cl)cc1Cn1cnc2c(Cl)c(CO)c(C(F)(F)F)cc2c1=O [Compound K-26, 8-Chloro-3-[(5-chloro-2-ethylsulfonylphenyl)methyl]-7-(hydroxymethyl)-6-(trifluoromethyl)quinazolin-4-one]	240 nM

Tested on: human endometrial cancer cell line MFE-280
Assay: Measurement of antitumor effect in MFE-280 cancer-bearing nude mice
Format: in vivo
Settings: MFE-280 xenograft in BALB/c nude mice, 200 mg/kg orally once daily, 11th day

SMILES	TGI after 11 days
CCS(=O)(=O)c1ccc(Cl)cc1Nn1cnc2ccc(OC(F)(F)F)cc2c1=O [Compound A-45, 3-(5-Chloro-2-ethylsulfonylanilino)-6-(trifluoromethoxy)quinazolin-4-one]	72%

Target: T1, DDR1
Assay: Measurement of DDR1 enzyme inhibitory activity (phosphorylation of biotinylated peptide, time-resolved fluorescence)
Format: biochemical
Settings: human DDR1 enzyme, biotinylated peptide phosphorylation; read-out: DDR1 enzyme inhibition assay IC50
In short: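 Baculovirus-expressed human DDR1 phosphorylated a biotinylated peptide, and inhibition of that phosphorylation was measured. Phosphopeptide was detected by time-resolved fluorescence using europium cryptate–labelled anti-phosphotyrosine antibody with streptavidin-XL665.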

SMILES	IC50
CCS(=O)(=O)c1ncc(Cl)cc1Nn1cnc2c(Br)cc(C)cc2c1=O [Compound D-5, 8-Bromo-3-[(5-chloro-2-ethylsulfonylpyridin-3-yl)amino]-6-methylquinazolin-4-one]	130 nM
CCSc1cnc(Cl)cc1Nn1cnc2ccc(C(F)(F)F)cc2c1=O [Compound D-6, 3-[(2-Chloro-5-ethylsulfanylpyridin-4-yl)amino]-6-(trifluoromethyl)quinazolin-4-one]	93 nM
CCSc1ccc(Cl)cc1Cn1cnc2c(Br)cc(C)cc2c1=O [Compound E-1, 8-Bromo-3-[(5-chloro-2-ethylsulfanylphenyl)methyl]-6-methylquinazolin-4-one]	640 nM
CCS(=O)(=O)c1ccc(Cl)cc1Cn1cnc2c(Br)cc(C)cc2c1=O [Compound E-2, 8-Bromo-3-[(5-chloro-2-ethylsulfonylphenyl)methyl]-6-methylquinazolin-4-one]	600 nM
CCSc1ccc(Cl)cc1Cn1cnc2ccc(OC(F)(F)F)cc2c1=O [Compound E-3, 3-[(5-Chloro-2-ethylsulfanylphenyl)methyl]-6-(trifluoromethoxy)quinazolin-4-one]	480 nM
CCSc1ccc(Cl)cc1Cn1cnc2cc(C)c(Br)cc2c1=O [Compound E-5, 6-Bromo-3-[(5-chloro-2-ethylsulfanylphenyl)methyl]-7-methylquinazolin-4-one]	950 nM
CCS(=O)(=O)c1ccc(Cl)cc1Cn1cnc2cc(C)c(Br)cc2c1=O [Compound E-6, 6-Bromo-3-[(5-chloro-2-ethylsulfonylphenyl)methyl]--7-methylquinazolin-4-one]	1100 nM
CCSc1ccc(Cl)cc1Cn1cnc2cc(C)c(I)cc2c1=O [Compound E-7, 3-[(5-Chloro-2-ethylsulfanylphenyl)methyl]-6-iodo-7-methylquinazolin-4-one]	790 nM
CCS(=O)(=O)c1ccc(Cl)cc1Cn1cnc2cc(C)c(I)cc2c1=O [Compound E-8, 3-[(5-Chloro-2-ethylsulfonylphenyl)methyl]-6-iodo-7-methylquinazolin-4-one]	200 nM
CCSc1ccc(Cl)cc1Cn1cnc2c(Br)cc(C(F)(F)F)cc2c1=O [Compound E-9, 8-Bromo-3-[(5-chloro-2-ethylsulfanylphenyl)methyl]-6-(trifluoromethyl)quinazolin-4-one]	590 nM
CCSc1ccc(Cl)cc1Cn1cnc2c(Br)cc(OC(F)(F)F)cc2c1=O [Compound E-11, 8-bromo-3-[(5-chloro-2-ethylsulfanylphenyl)methyl]-6-(trifluoromethoxy)quinazolin-4-one]	540 nM
CCS(=O)(=O)c1ccc(Cl)cc1Cn1cnc2c(Br)cc(OC(F)(F)F)cc2c1=O [Compound E-12, 8-Bromo-3-[(5-chloro-2-ethylsulfonylphenyl)methyl]-6-(trifluoromethoxy)quinazolin-4-one]	390 nM
CCS(=O)(=O)c1ccc(Cl)cc1Cn1cnc2c(Cl)cc(OC(F)(F)F)cc2c1=O [Compound E-14, 8-Chloro-3-[(5-chloro-2-ethylsulfonylphenyl)methyl]-6-(trifluoromethoxy)quinazolin-4-one]	120 nM
CCSc1ccc(Cl)cc1Cn1cnc2ccc(C(F)(F)F)cc2c1=O [Compound E-15, 3-[(5-Chloro-2-ethylsulfanylphenyl)methyl]-6-(trifluoromethyl)quinazolin-4-one]	450 nM
CCS(=O)(=O)c1ccc(Cl)cc1Cn1cnc2c(Br)c(C)c(Br)cc2c1=O [Compound E-17, 6,8-Dibromo-3-[(5-chloro-2-ethylsulfonylphenyl)methyl]-7-methylquinazolin-4-one]	150 nM
CCS(=O)(=O)c1ccc(C#N)cc1Cn1cnc2ccc(C(F)(F)F)cc2c1=O [Compound E-28, 4-Ethylsulfonyl-3-[[4-oxo-6-(trifluoromethyl)quinazolin-3-yl]methyl]benzonitrile]	630 nM
CCS(=O)(=O)c1ccc(Cl)cc1Cn1ccc2ccc(OC)cc2c1=O [Compound F-3, 2-[(5-Chloro-2-ethylsulfonylphenyl)methyl]-7-methoxyisoquinolin-1-one]	490 nM
CCS(=O)(=O)c1ccc([N+](=O)[O-])cc1Cn1ccc2ccc(C(F)(F)F)cc2c1=O [Compound F-6, 2-[(2-Ethylsulfonyl-5-nitrophenyl)methyl]-7-(trifluoromethyl)isoquinolin-1-one]	490 nM
CCS(=O)(=O)c1ccc(N)cc1Cn1ccc2ccc(C(F)(F)F)cc2c1=O [Compound F-7, 2-[(5-Amino-2-ethylsulfonylphenyl)methyl]-7-(trifluoromethyl)isoquinolin-1-one]	2080 nM
CCS(=O)(=O)c1ccc([N+](=O)[O-])cc1Cn1ccc2ccc(OC(F)(F)F)cc2c1=O [Compound F-9, 2-[(2-Ethylsulfonyl-5-nitrophenyl)methyl]-7-(trifluoromethoxy)isoquinolin-1-one]	810 nM
CCS(=O)(=O)c1ccc(N)cc1Cn1ccc2ccc(OC(F)(F)F)cc2c1=O [Compound F-10, 2-[(5-Amino-2-ethylsulfonylphenyl)methyl]-7-(trifluoromethoxy)isoquinolin-1-one]	1340 nM
CCS(=O)(=O)c1ccc(C#N)cc1Nn1cnc2cc(CN3CCOCC3)c(OC(F)(F)F)cc2c1=O [Compound G-8, 4-Ethylsulfonyl-3-[[7-(morpholin-4-ylmethyl)-4-oxo-6-(trifluoromethoxy)quinazolin-3-yl]amino]benzonitrile]	680 nM
CCS(=O)(=O)c1ccc(C#N)cc1Nn1cnc2cc(CN3CCNCC3)c(Br)cc2c1=O [Compound H-41, 3-[[6-Bromo-4-oxo-7-(piperazin-1-ylmethyl)quinazolin-3-yl]amino]-4-ethylsulfonylbenzonitrile]	250 nM

Same assay, conditions: read-out: DDR1 enzyme inhibition assay IC50

SMILES	IC50
CCS(=O)(=O)c1ccc(Cl)cc1Cn1cnc2cc(CN3CC[C@@H](N)C3)c(Br)cc2c1=O [Compound J-7, 7-[[(3R)-3-aminopyrrolidin-1-yl]methyl]-6-bromo-3-[(5-chloro-2-ethylsulfonylphenyl)methyl]quinazolin-4-one]	170 nM
CCS(=O)(=O)c1ccc(Cl)cc1Cn1cnc2cc(CN3CC[C@H](N)C3)c(Br)cc2c1=O [Compound J-8, 7-[[(3S)-3-Aminopyrrolidin-1-yl]methyl]-6-bromo-3-[(5-chloro-2-ethylsulfonylphenyl)methyl]quinazolin-4-one]	140 nM
CCS(=O)(=O)c1ccc(Cl)cc1Cn1cnc2cc(CN3CCC(N4CCCCC4)C3)c(Br)cc2c1=O (stereo not drawn) [Compound J-9, 6-Bromo-3-[(5-chloro-2-ethylsulfonylphenyl)methyl]-7-[(3-piperidin-1-ylpyrrolidin-1-yl)methyl]quinazolin-4-one]	120 nM
CCS(=O)(=O)c1ccc(Cl)cc1Cn1cnc2c(Br)c(CN3CCNCC3)c(Br)cc2c1=O [Compound L-11, 6,8-Dibromo-3-[(5-chloro-2-ethylsulfonylphenyl)methyl]-7-(piperazin-1-ylmethyl)quinazolin-4-one]	90 nM
CCS(=O)(=O)c1ccc(Cl)cc1Cn1cnc2c(Br)c(CN3CCN(C(C)C)CC3)c(Br)cc2c1=O [Compound L-12, 6,8-Dibromo-3-[(5-chloro-2-ethylsulfonylphenyl)methyl]-7-[(4-propan-2-ylpiperazin-1-yl)methyl]quinazolin-4-one]	200 nM
